In brackets after ≈: the same amount, converted by molar mass. Where two headings read alike, the source gives them in different places.

A short description of one data set: Log P value of the drugs. It counts as physicochemical. The note with it: octanol/water. The source says:
The first property of hydrophobic drugs is that they are extremely hydrophobic. Log P, defined as the base 10 logarithm of the ratio of the drug solubility in octanol to the drug solubility in water, is a widely accepted measure of hydrophobicity. By “extremely hydrophobic” is meant that the Log P value of the drug is at least 4.0, preferably at least 4.5, and most preferably at least 5.0. Log P may be measured experimentally or calculated using methods known in the art. When using a calculated value for Log P, the highest value calculated using any generally accepted method for calculating Log P is used. Calculated Log P values are often referred to by the calculation method, such as Clog P, Alog P, and Mlog P. The Log P may also be estimated using fragmentation methods, such as Crippen's fragmentation method (27 J. Chem. Inf. Comput. Sci. 21 (1987)); Viswanadhan's fragmentation method (29 J. Chem. Inf. Comput. Sci. 163 (1989)); or Broto's fragmentation method (19 Eur. J. Med. Chem.-Chim. Theor. 71 (1984). Preferably the Log P value is calculated by using the average value estimated using Crippen's, Viswanadhan's, and Broto's fragmentation methods.

Data set [1] in a line: Solubility of the drugs in MFD solution, PBS or water. The data set is classed as physicochemical.
[2] abbreviates: MFD solution, fassgf or other biorelevant, read-out: solubility in MFD solution.

What is called solubility is how much of the substance goes into solution per volume. For `Cc1ccc(-c2cc(C(F)(F)F)nn2-c2ccc(S(N)(=O)=O)cc2)cc1` [Drug 1, 4-[5-(4-methylphenyl)-3-(trifluoromethyl)-1H-pyrazol-1-yl]benzenesulfonamide], in “Log P value of the drugs” (read-out: Log P value), the logP is 3.75. In addition, the solubility in data set [1] (setting [2]) is around 40 µg/mL (≈ 105 µM). As for `CCc1cc(Oc2cccc(N(Cc3cccc(OC(F)(F)C(F)F)c3)C[C@@H](O)C(F)(F)F)c2)ccc1Cl` [Drug 2, (2R)-3-[[3-(4-chloro-3-ethylphenoxy)phenyl][[3-(1,1,2,2-tetrafluoroethoxy)phenyl]methyl]amino]-1,1,1-trifluoro-2-propanol], the logP in “Log P value of the drugs” (read-out: Log P value) was found to be 10. For the same compound, the solubility in data set [1] (PBS, aqueous buffer, read-out: solubility in PBS) is below 0.1 µg/mL. As to `CC[C@@H]1C[C@H](N(Cc2cc(C(F)(F)F)cc(C(F)(F)F)c2)C(C)=O)c2cc(C(F)(F)F)ccc2N1C(=O)OC(C)C` [Drug 3, [2R,4S] 4-[acetyl-(3,5-bis-trifluoromethyl-benzyl)-amino]-2-ethyl-6-trifluoromethyl-3,4-dihydro-2H-quinoline-1-carboxylic acid isopropyl ester], the solubility in data set [1] (setting [2]) was around 11 µg/mL (≈ 18.4 µM).

In “Log P value of the drugs”, `c1cc[c]([Bi]([c]2ccccc2)[c]2ccccc2)cc1` [Drug 5, triphenyl bismuth] registered a logP of 6.

The values are drawn from patent US20100080852A1, “PHAMACEUTICAL COMPOSITION COMPRISING NANOPARTICLES AND CASEIN” (priority 2007, published 2010).
